Assay [1] relates to RAW264.7. As to the kind of experiment: Antiinflammatory activity in mouse RAW264.7 cells assessed as reduction in LPS-induced NO production at 10 uM preincubated for 2 hrs followed by LPS stimulation and measured after 24 hrs by Griess reagent-based assay relative to control. The assay is classed as functional. The note with it: time 26 hrs. Also noted: scale not given: the % may be the effect or the level left. On the technique in general: Griess reagent forms a coloured azo dye with nitrite.

In assay [2] the test system is RAW264.7. As to the kind of experiment: Antiinflammatory activity in mouse RAW264.7 cells assessed as reduction in LPS-induced NO production at 25 to 50 uM preincubated for 2 hrs followed by LPS stimulation and measured after 24 hrs by Griess reagent-based assay relative to control. The assay is classed as functional. Also noted: scale not given: the % may be the effect or the level left. The note with it: dose 25-50 µM, time 26 hrs.

Assay [3] relates to RAW264.7. In words: Antiinflammatory activity in mouse RAW264.7 cells assessed as reduction in LPS-induced NO production preincubated for 2 hrs followed by LPS stimulation and measured after 24 hrs by Griess reagent-based assay. The assay is classed as functional, cell-based. The note with it: dose 5-50 µM, time 26.0 hrs.

As for `C[C@@H]1C[C@H]2[C@@H]3CCC4=CC(=O)C=C[C@]4(C)[C@@]3(F)[C@@H](O)C[C@]2(C)[C@@]1(O)C(=O)CO` [DEXAMETHASONE], the Activity in assay [1] is given as 50%.
Regarding `COc1cccc2ccc(-c3ccc(O)c4c(OC)cccc34)c(O)c12`, the Activity in assay [2] was 50%; in assay [3] it was “Dose-Dependent Effect”.
As to `COc1cccc2ccc(-c3ccc4cccc(OC)c4c3O)c(O)c12`, the values for the Activity in assay [2] and in assay [3] were 50% and “Dose-Dependent Effect”, respectively.
On the same counts, the results for `COc1cccc2ccc(-c3cc(-c4ccc(O)c5c(OC)cccc45)c4cccc(OC)c4c3O)c(O)c12` are 50% and “Dose-Dependent Effect”.

The values are drawn from ChEMBL document CHEMBL5360674, “Discovery of Naphthol Tetramers from Endolichenic Fungus Daldinia childiae 047219 Based on MS/MS Molecular Networking” (2023).
